Molecular target: T1, human mGlu5 (Homo sapiens, UniProt P41594)
T1 construct: expressed in transfected cells; host or cells: HEK 293A
Experiment: mGlu5 negative allosteric modulator Ca2+ flux assay in HEK 293A cells (Table 1)
Type: cell-based
Conditions: HEK 293A cells stably expressing mGlu5; Ca2+ flux (Fluo-4); decrease of glutamate EC80 response; read-out: hmGlu5 NAM IC50

T1 sequence (P41594 21-1212): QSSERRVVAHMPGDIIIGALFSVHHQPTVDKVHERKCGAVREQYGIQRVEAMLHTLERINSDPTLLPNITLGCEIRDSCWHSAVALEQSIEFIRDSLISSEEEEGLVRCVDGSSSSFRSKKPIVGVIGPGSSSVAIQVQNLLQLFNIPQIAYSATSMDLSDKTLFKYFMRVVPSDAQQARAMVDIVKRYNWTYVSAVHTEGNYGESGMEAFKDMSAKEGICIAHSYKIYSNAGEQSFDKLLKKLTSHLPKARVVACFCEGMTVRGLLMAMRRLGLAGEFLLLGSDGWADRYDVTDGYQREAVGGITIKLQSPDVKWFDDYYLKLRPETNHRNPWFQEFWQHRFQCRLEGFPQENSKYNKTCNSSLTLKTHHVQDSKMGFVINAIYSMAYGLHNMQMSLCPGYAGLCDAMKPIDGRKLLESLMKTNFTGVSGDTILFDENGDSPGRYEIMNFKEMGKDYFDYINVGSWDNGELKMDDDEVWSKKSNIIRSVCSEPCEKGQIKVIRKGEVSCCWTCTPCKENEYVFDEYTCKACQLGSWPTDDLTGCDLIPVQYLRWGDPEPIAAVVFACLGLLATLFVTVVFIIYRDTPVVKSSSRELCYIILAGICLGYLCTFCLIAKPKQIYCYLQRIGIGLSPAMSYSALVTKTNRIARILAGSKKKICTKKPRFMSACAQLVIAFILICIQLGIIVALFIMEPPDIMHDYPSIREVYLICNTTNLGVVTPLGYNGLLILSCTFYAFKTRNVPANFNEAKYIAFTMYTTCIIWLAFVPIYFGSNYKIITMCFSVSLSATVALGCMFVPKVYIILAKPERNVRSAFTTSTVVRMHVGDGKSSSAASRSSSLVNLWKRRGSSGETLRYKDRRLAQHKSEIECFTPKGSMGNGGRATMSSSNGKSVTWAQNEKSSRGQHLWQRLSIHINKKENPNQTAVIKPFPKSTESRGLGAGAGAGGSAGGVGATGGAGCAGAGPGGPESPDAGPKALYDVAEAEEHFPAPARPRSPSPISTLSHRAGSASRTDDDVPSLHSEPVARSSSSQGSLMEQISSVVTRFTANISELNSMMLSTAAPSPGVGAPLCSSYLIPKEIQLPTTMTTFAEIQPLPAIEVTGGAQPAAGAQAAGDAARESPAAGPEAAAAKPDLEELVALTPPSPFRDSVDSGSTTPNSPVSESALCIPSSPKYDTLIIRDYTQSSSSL

Row | SMILES | IC50 [nM]
1 | Cc1cccc(NC(=O)c2cc(-c3cnccc3C)cc(F)c2F)n1 [Compound 10, 2,3-difluoro-N-(6-methylpyridin-2-yl)-5-(4-methylpyridin-3-yl)benzamide] | 322
2 | Cc1ccncc1-c1cc(C(=O)Nc2ccc(F)cn2)c(F)cc1F [Compound 38, 2,4-difluoro-N-(5-fluoropyridin-2-yl)-5-(4-methylpyridin-3-yl)benzamide] | 6420
3 | Cc1cccc(NC(=O)c2cc(-c3cnccc3C)cc(C(F)(F)F)c2)n1 [Compound 20, N-(6-methylpyridin-2-yl)-3-(4-methylpyridin-3-yl)-5-(trifluoromethyl)benzamide] | 1160
4 | Cc1csc(NC(=O)c2cc(-c3cncc(F)c3)cc(F)c2F)n1 [Compound 40, 2,3-difluoro-5-(5-fluoropyridin-3-yl)-N-(4-methylthiazol-2-yl)benzamide] | 93
5 | Cc1cccc(NC(=O)c2cc(C#N)cc(-c3cnccc3C)c2)n1 [Compound 24, 3-cyano-N-(6-methylpyridin-2-yl)-5-(4-methylpyridin-3-yl)benzamide] | 273
6 | Cc1cccc(NC(=O)c2cc(-c3cnccc3C)ccc2F)n1 [Compound 13, 2-fluoro-N-(6-methylpyridin-2-yl)-5-(4-methylpyridin-3-yl)benzamide] | 366
7 | Cc1csc(NC(=O)c2cc(F)c(F)c(-c3cnccc3C)c2)n1 [Compound 51, 3,4-difluoro-5-(4-methylpyridin-3-yl)-N-(4-methylthiazol-2-yl)benzamide] | 437
8 | Cc1csc(NC(=O)c2cc(-c3cnccc3C)cc(C(F)(F)F)c2)n1 [Compound 18, 3-(4-methylpyridin-3-yl)-N-(4-methylthiazol-2-yl)-5-(trifluoromethyl)benzamide] | > 10000
9 | Cn1cncc1-c1cc(F)cc(C(=O)Nc2ccc(F)cn2)c1 [Compound 27, 3-fluoro-N-(5-fluoropyridin-2-yl)-5-(1-methyl-1H-imidazol-5-yl)benzamide] | > 10000
10 | Cc1ccncc1-c1cc(C(=O)Nc2ccc(Cl)cn2)c(F)cc1F [Compound 39, N-(5-chloropyridin-2-yl)-2,4-difluoro-5-(4-methylpyridin-3-yl)benzamide] | 974
11 | Cc1ccncc1-c1cc(Cl)cc(C(=O)Nc2ccc(F)cn2)c1 [Compound 17, 3-chloro-N-(5-fluoropyridin-2-yl)-5-(4-methylpyridin-3-yl)benzamide] | 1860
12 | Cc1ccncc1-c1ccc(F)c(C(=O)Nc2ccccn2)c1 [Compound 11, 2-fluoro-5-(4-methylpyridin-3-yl)-N-(pyridin-2-yl)benzamide] | 1880
13 | Cc1ncc(-c2cc(F)c(F)c(C(=O)Nc3ccc(F)cn3)c2)s1 [Compound 35, 2,3-difluoro-N-(5-fluoropyridin-2-yl)-5-(2-methylthiazol-5-yl)benzamide] | 4170
14 | Cc1csc(NC(=O)c2cc(-c3cnccc3C)ccc2F)n1 [Compound 1, 2-fluoro-5-(4-methylpyridin-3-yl)-N-(4-methylthiazol-2-yl)benzamide] | 734
15 | Cc1ccncc1-c1cc(C(=O)Nc2cccc(Cl)n2)c(F)cc1F [Compound 48, N-(6-chloropyridin-2-yl)-2,4-difluoro-5-(4-methylpyridin-3-yl)benzamide] | 192
16 | Cc1ccncc1-c1cc(F)c(F)c(C(=O)Nc2ccccn2)c1 [Compound 8, 2,3-difluoro-5-(4-methylpyridin-3-yl)-N-(pyridin-2-yl)benzamide] | > 10000
17 | Cc1ccncc1-c1ccc(F)c(C(=O)Nc2ccc(F)cn2)c1 [Compound 12, 2-fluoro-N-(5-fluoropyridin-2-yl)-5-(4-methylpyridin-3-yl)benzamide] | 1060
18 | Cc1cc(C(=O)Nc2ccccn2)cc(-c2cnccc2C)c1 [Compound 5, 3-Methyl-5-(4-methylpyridin-3-yl)-N-(pyridin-2-yl)benzamide] | 95
19 | Cc1ccncc1-c1cc(C#N)cc(C(=O)Nc2ccc(F)cn2)c1 [Compound 25, 3-cyano-N-(5-fluoropyridin-2-yl)-5-(4-methylpyridin-3-yl)benzamide] | 989
20 | Cc1nn(C)cc1-c1ccc(F)c(C(=O)Nc2ccc(F)cn2)c1 [Compound 26, 5-(1,3-dimethyl-1H-pyrazol-4-yl)-2-fluoro-N-(5-fluoropyridin-2-yl)benzamide] | > 10000
21 | O=C(Nc1ccc(F)cn1)c1cc(-c2cncc(F)c2)cc(F)c1F [Compound 34, 2,3-difluoro-N-(5-fluoropyridin-2-yl)-5-(5-fluoropyridin-3-yl)benzamide] | 161
22 | Cc1csc(NC(=O)c2cc(-c3cnccc3C)cc(F)c2F)n1 [Compound 2, 2,3-difluoro-5-(4-methylpyridin-3-yl)-N-(4-methylthiazol-2-yl)benzamide] | 136
23 | Cc1ccncc1-c1cc(C(=O)Nc2ccc(F)cn2)cc(C(F)(F)F)c1 [Compound 21, N-(5-fluoropyridin-2-yl)-3-(4-methylpyridin-3-yl)-5-(trifluoromethyl)benzamide] | 3370

Row | SMILES | IC50 [nM]
24 | Cc1cc(C(=O)Nc2ccc(F)cn2)cc(-c2cnccc2C)c1 [Compound 6, N-(5-fluoropyridin-2-yl)-3-methyl-5-(4-methylpyridin-3-yl)benzamide] | 370
25 | Cc1csc(NC(=O)c2cc(-c3cnccc3C)c(F)cc2F)n1 [Compound 37, 2,4-difluoro-5-(4-methylpyridin-3-yl)-N-(4-methylthiazol-2-yl)benzamide] | 437
26 | Cc1nn(C)cc1-c1cc(F)c(F)c(C(=O)Nc2ccc(F)cn2)c1 [Compound 33, 5-(1,3-dimethyl-1H-pyrazol-4-yl)-2,3-difluoro-N-(5-fluoropyridin-2-yl)benzamide] | 3460
27 | Cc1cccc(NC(=O)c2cc(-c3cnccc3C)c(F)cc2F)n1 [Compound 47, 2,4-difluoro-N-(6-methylpyridin-2-yl)-5-(4-methylpyridin-3-yl)benzamide] | 105
28 | Cc1cccc(NC(=O)c2cc(F)c(F)c(-c3cnccc3C)c2)n1 [Compound 30, 3,4-difluoro-N-(6-methylpyridin-2-yl)-5-(4-methylpyridin-3-yl)benzamide] | 101
29 | Cc1ccncc1-c1cc(F)c(F)c(C(=O)Nc2ccc(F)cn2)c1 [Compound 9, 2,3-difluoro-N-(5-fluoropyridin-2-yl)-5-(4-methylpyridin-3-yl)benzamide] | 1030
30 | Cc1ccncc1-c1cc(C#N)cc(C(=O)Nc2ccccn2)c1 [Compound 23, 3-cyano-5-(4-methylpyridin-3-yl)-N-(pyridin-2-yl)benzamide] | 1210
31 | Cc1csc(NC(=O)c2cc(C#N)cc(-c3cnccc3C)c2)n1 [Compound 22, 3-cyano-5-(4-methylpyridin-3-yl)-N-(4-methylthiazol-2-yl)benzamide] | 198
32 | Cc1csc(NC(=O)c2cc(F)cc(-c3cnccc3C)c2)n1 [Compound 3, 3-fluoro-5-(4-methylpyridin-3-yl)-N-(4-methylthiazol-2-yl)benzamide] | 540
33 | Cc1nn(C)c(C)c1-c1cc(F)cc(C(=O)Nc2ccc(F)cn2)c1 [Compound 28, 3-fluoro-N-(5-fluoropyridin-2-yl)-5-(1,3,5-trimethyl-1H-pyrazol-4-yl)benzamide] | > 10000
34 | Cc1cccc(NC(=O)c2cc(F)c(F)c(-c3cnc(C)s3)c2)n1 [Compound 45, 3,4-difluoro-N-(6-methylpyridin-2-yl)-5-(2-methylthiazol-5-yl)benzamide] | 1230
35 | Cc1cc(C(=O)Nc2cccc(C)n2)cc(-c2cnccc2C)c1 [Compound 4, 3-methyl-N-(6-methylpyridin-2-yl)-5-(4-methylpyridin-3-yl)benzamide] | 43
36 | Cn1nc(C(F)(F)F)cc1-c1cc(F)c(F)c(C(=O)Nc2ccc(F)cn2)c1 [Compound 36, 2,3-difluoro-N-(5-fluoropyridin-2-yl)-5-(1-methyl-3-(trifluoromethyl)-1H-pyrazol-5-yl)benzamide] | > 10000
37 | Cc1cccc(NC(=O)c2cc(Cl)cc(-c3cnccc3C)c2)n1 [Compound 16, 3-chloro-N-(6-methylpyridin-2-yl)-5-(4-methylpyridin-3-yl)benzamide] | 104
38 | Cc1ccncc1-c1cc(C(=O)Nc2ccc(F)cn2)cc(F)c1F [Compound 29, 3,4-difluoro-N-(5-fluoropyridin-2-yl)-5-(4-methylpyridin-3-yl)benzamide] | 2240
39 | Cn1nccc1-c1cc(F)c(F)c(C(=O)Nc2ccc(F)cn2)c1 [Compound 32, 2,3-difluoro-N-(5-fluoropyridin-2-yl)-5-(1-methyl-1H-pyrazol-5-yl)benzamide] | 4890
40 | Cc1cc(C(=O)Nc2nc(C)cs2)cc(-c2cnccc2C)c1 [Compound 7, 3-Methyl-5-(4-methylpyridin-3-yl)-N-(4-methylthiazol-2-yl)benzamidecarboxamide] | 127
41 | Cc1cccc(NC(=O)c2cc(F)c(F)c(-c3cncc(F)c3)c2)n1 [Compound 46, 3,4-difluoro-5-(5-fluoropyridin-3-yl)-N-(6-methylpyridin-2-yl)benzamide] | 94
42 | Cc1cccc(NC(=O)c2cc(F)c(F)c(-c3cc(C(F)(F)F)nn3C)c2)n1 [Compound 44, 3,4-difluoro-5-(1-methyl-3-(trifluoromethyl)-1H-pyrazol-5-yl)-N-(6-methylpyridin-2-yl)benzamide] | 3510
43 | O=C(Nc1cccc(Cl)n1)c1cc(-c2cncc(F)c2)cc(F)c1F [Compound 42, N-(6-chloropyridin-2-yl)-2,3-difluoro-5-(5-fluoropyridin-3-yl)benzamide] | 193
44 | Cc1ccncc1-c1cc(C(=O)Nc2ccc(Cl)cn2)cc(F)c1F [Compound 31, N-(5-chloropyridin-2-yl)-3,4-difluoro-5-(4-methylpyridin-3-yl)benzamide] | 677
45 | Cc1csc(NC(=O)c2cc(Cl)cc(-c3cnccc3C)c2)n1 [Compound 14, 3-chloro-5-(4-methylpyridin-3-yl)-N-(4-methylthiazol-2-yl)benzamide] | 631
46 | Cc1ccncc1-c1cc(C(=O)Nc2ccccn2)cc(C(F)(F)F)c1 [Compound 19, 3-(4-methylpyridin-3-yl)-N-(pyridin-2-yl)-5-(trifluoromethyl)benzamide] | 2590

From patent publication US20240390350A1, “PHENYL CORE COMPOUNDS AS MGLU5 NEGATIVE ALLOSTERIC MODULATORS AND METHODS OF MAKING AND USING THE SAME” (Vanderbilt University, priority 2021, published 2024)
